Results on 102 compounds are retold here after PubChem BioAssay AID608 (Sanford-Burnham Center for Chemical Genomics, 2007).

pKd: −log10 of the molar value. Calls of active or inactive are those of the source. The rule behind the calls is not given here. A value given as a limit tells only on which side of the number the result lay.

As a reminder, the Kd is the free concentration of one partner at which half of the binding sites on the other are occupied at equilibrium, for simple one-to-one binding. For orientation: pKd means the negative decadic logarithm of the Kd, by convention in mol/L.

The assay deals with Peptidyl-prolyl cis-trans isomerase FKBP1A (Homo sapiens) (UniProt P62942). The assay can be described thus: FKBP12 binders, biophysical, NMR detection (AID 608). As to conditions: NMR binding, purified FKBP12.
Sequence of Peptidyl-prolyl cis-trans isomerase FKBP1A (Homo sapiens) (P62942 whole entry, looked up): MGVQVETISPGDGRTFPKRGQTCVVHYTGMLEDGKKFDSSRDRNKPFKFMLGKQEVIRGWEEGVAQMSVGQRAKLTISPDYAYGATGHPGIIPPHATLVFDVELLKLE
As to `CNC(=O)c1cccc(NC(=S)NC)c1`, the Kd is > 4 mM (inactive).

For `O=C1CCC([N+](=O)[O-])C(c2ccccc2F)N1` (configuration not stated), the Kd is > 4 mM (inactive).

For the compound `CNc1nc(C)nc(-n2nc(C)cc2C)n1`, the Kd was > 4 mM (inactive).

Turning to `COc1cc2nc(-c3cccs3)oc(=O)c2cc1OC`, the Kd is > 4 mM (inactive).

Take `CN(C)N1C(=O)C2CCCCC2C1=O` (configuration not stated): the Kd is > 4 mM (inactive).

`COc1cc2c(cc1OC)[C@@H]1C(=O)c3ccc(OC)c(CC=C(C)C)c3O[C@@H]1CO2`: the Kd was > 4 mM (inactive).

Regarding `CC(=O)c1nnc2cc(C)nn2c1C`, the Kd was > 4 mM (inactive).

In the case of `CC(C)C(C)/C=C/C(C)C1CCC2C3=CC=C4CC(O)CCC4(C)C3CCC21C` (configuration not stated), the Kd was > 4 mM (inactive).

For the compound `Oc1ccc2c(c1)OCO2`, the Kd was > 4 mM (inactive).

Turning to `O=C(C(Sc1ccccc1)c1ccccc1)N1CCOCC1` (configuration not stated), the pKd is 3.84.

Take `COc1ccccc1-c1n[nH]c(=O)o1`: the Kd was > 4 mM (inactive).

Consider `Oc1cc(O)c2c(c1)O[C@H](c1cc(O)c(O)c(O)c1)[C@H](O)C2`, for which the Kd is > 4 mM (inactive).

Take `O=C1c2ccncc2C(=O)N1CNc1ccccn1`: the Kd is > 4 mM (inactive).

`CC(=O)OCc1cc(=O)n(C)c(=O)n1C`: the Kd is > 4 mM (inactive).

For `CC(=O)O[C@@H]1CC2C(C)(CC[C@H](O)C2(C)C)C2CC[C@]3(C)C(=CC(=O)O[C@H]3c3ccoc3)C21C` (some centres not stated), the Kd is > 4 mM (inactive).

`O=C(Nc1cccc(O)c1)c1ccccc1`: the Kd was > 4 mM (inactive).

As to `Cc1occc1C(=O)Nc1nnc(C2CCCCC2)s1`, the Kd was > 4 mM (inactive).

As to `O=C1c2cccnc2C(=O)N1Cc1ccco1`, the Kd was > 4 mM (inactive).

In the case of `OCC1CCN(c2ncccn2)CC1`, the Kd is > 4 mM (inactive).

For the compound `c1ccc2c(c1)nc(-c1cscn1)n2Cc1ccc(-c2nn[nH]n2)cc1`, the Kd result was “inactive”.

In the case of `CCNC(CC(=O)Nc1ccc(F)cc1)C(=O)O` (configuration not stated), the Kd is > 4 mM (inactive).

Regarding `COCC(=O)Nc1cccc2ccccc12`, the Kd is > 4 mM (inactive).

Consider `Cc1cccc(-c2nnc(-c3ccc(N)cc3)o2)c1`, for which the Kd was > 4 mM (inactive).

For the compound `O=C(O)C(Cc1cnc[nH]1)N1C(=O)c2ccccc2C1=O` (configuration not stated), the Kd is > 4 mM (inactive).

With `Cn1c(CN)nc2ccccc21`, the Kd is > 4 mM (inactive).

As for `Cc1scc(C(=O)Nc2ccon2)c1-c1ccccc1`, the Kd is > 4 mM (inactive).

Take `NCc1nc2ccccc2s1`: the Kd is > 4 mM (inactive).

For the compound `O=C(NN1C(=O)CSC1=S)c1ccccc1`, the Kd was > 4 mM (inactive).

As to `O=C(C1CCNCC1)N1CCCCCC1`, the Kd is > 4 mM (inactive).

Take `O=C(Cc1cccs1)Nc1ccccn1`: the Kd was > 4 mM (inactive).

Turning to `CC1(C)Cc2nc(N3CCOCC3)c(C#N)cc2CO1`, the Kd was > 4 mM (inactive).

Take `CC(=O)Nc1nc(-c2cccs2)cs1`: the Kd was > 4 mM (inactive).

For `Nc1ccc(S(=O)(=O)Nc2ccc(F)cc2F)cc1`, the Kd was > 4 mM (inactive).

Regarding `NC(=O)c1cc(N)cc(C(N)=O)c1`, the Kd was > 4 mM (inactive).

As for `C/C=C(/C)C(=O)O[C@@H]1[C@H](OC(C)=O)[C@@]2(CO)C(CC1(C)C)C1=CCC3[C@@]4(C)CC[C@H](O[C@@H]5O[C@H](C(=O)O)[C@@H](O[C@@H]6O[C@H](CO)[C@@H](O)[C@H](O)[C@H]6O)[C@H](O)[C@H]5O[C@@H]5O[C@H](CO)[C@@H](O)[C@H](O)[C@H]5O)[C@](C)(CO)C4CC[C@@]3(C)[C@]1(C)C[C@H]2O` (some centres not stated), the Kd was > 4 mM (inactive).

For the compound `COc1cc([C@@H]2c3cc4c(c(O)c3C[C@H]3COC(=O)[C@@H]32)OCO4)cc(OC)c1OC`, the Kd was > 4 mM (inactive).

Consider `O=C1NC(=S)NC(=O)C1=Cc1cccs1`, for which the Kd was > 4 mM (inactive).

As to `Cc1cc(NC(=O)Cc2cccs2)no1`, the Kd is > 4 mM (inactive).

As for `CCC(=O)Nc1cccc(NC(C)=O)c1`, the Kd is > 4 mM (inactive).

On to `O=C(NCc1cccc(Cl)c1)c1cnccn1`, for which the Kd is > 4 mM (inactive).

With `CN(C)c1nc(N)nc(Cn2ccnc2)n1`, the Kd is > 4 mM (inactive).

As to `CN1CCN(CC(O)c2ccccc2)CC1` (configuration not stated), the Kd is > 4 mM (inactive).

Turning to `Cc1cc(OCC(=O)N2CCOCC2)ccc1C(C)C`, the Kd result is “inactive”.

Take `O=c1cc(-c2ccccc2)oc2cc(O)cc(O)c12`: the Kd was > 4 mM (inactive).

Take `Cc1cc(NC(=O)c2cnn3cccnc23)no1`: the Kd was > 4 mM (inactive).

Take `O=C1CSC(=S)N1Cc1cccnc1`: the Kd was > 4 mM (inactive).

Take `Cc1cc(=O)[nH]c(N2CCN(Cc3ccccc3)CC2)n1`: the Kd was > 4 mM (inactive).

For the compound `O=C(O)c1c[nH]c2ccccc12`, the Kd is > 4 mM (inactive).

For `COc1ccc(C(=O)NC2=NCCS2)cc1OC`, the Kd is > 4 mM (inactive).

As to `S=C(Cc1cccnc1)N1CCOCC1`, the Kd was > 4 mM (inactive).

As to `O=C1CC(=O)N2N=C(c3ccccc3)SC2=N1`, the Kd is > 4 mM (inactive).

On to `CCOc1ccc(N2C(=O)CCC2=O)cc1`, for which the Kd was > 4 mM (inactive).

Regarding `COC(=O)C1COCCN1C(=O)C(F)(F)Sc1ccc(C(C)C)cc1` (configuration not stated), the pKd was 3.72.

`O=C(c1ccncc1)c1ccc(Br)cc1`: the Kd is > 4 mM (inactive).

As for `CC1(C)C(=O)CC[C@@]2(C)C1C[C@@H](O)[C@@]1(C)C3=CC(=O)O[C@@H](c4ccoc4)[C@]3(C)CCC21` (some centres not stated), the Kd was > 4 mM (inactive).

Regarding `COc1ccc(C2CC(=O)c3ccc(OC)cc3O2)cc1` (configuration not stated), the Kd was > 4 mM (inactive).

As for `Cc1cccc(C)c1NC(=O)CN1CCOCC1`, the Kd is > 4 mM (inactive).

`CC(=O)NC(=S)Nc1cccc(C(=O)O)c1C`: the Kd was > 4 mM (inactive).

As to `COc1ccc(/C=N/n2cn[nH]c2=S)cc1`, the Kd is > 4 mM (inactive).

For `Cc1ccc(-c2c(C)n([O-])c3c([n+]2=O)CCCC3)o1`, the Kd was > 4 mM (inactive).

For the compound `S=C(Nc1ccc2nccnc2c1)N1CCOCC1`, the Kd is > 4 mM (inactive).

Consider `CCc1ccccc1OCC(=O)N1CCOCC1`, for which the Kd is > 4 mM (inactive).

On to `O=c1oc2c(O)c(O)cc3c(=O)oc4c(O)c(O)cc1c4c23`, for which the Kd was > 4 mM (inactive).

Consider `O=C1c2ccccc2C(=O)c2c1ccc(O)c2O`, for which the Kd is > 4 mM (inactive).

Take `O=C(O)Cc1c[nH]c2ccccc12`: the Kd was > 4 mM (inactive).

Take `Cc1cc(OC(=O)c2c(C)cc(O)cc2O)cc(O)c1C(=O)O`: the Kd is > 4 mM (inactive).

On to `CCOC(=O)c1ccc2c(c1)nnn2C`, for which the Kd is > 4 mM (inactive).

On to `COC(=O)CC1NC2CCCCC2NC1=O` (configuration not stated), for which the Kd is > 4 mM (inactive).

Regarding `Cn1c(=O)cc(N2CCCCC2)[nH]c1=O`, the Kd is > 4 mM (inactive).

Consider `OCCCc1nc2ccc(C(F)(F)F)cc2[nH]1`, for which the Kd was > 4 mM (inactive).

For the compound `O=C1CCCN1C(=O)CN1CCOCC1`, the Kd is > 4 mM (inactive).

On to `Cc1nc(SCC(=O)c2c[nH]c3ccccc23)n[nH]1`, for which the Kd entry is “inactive”.

In the case of `O=c1[nH]c(=S)[nH]c2c1CCC2`, the Kd is > 4 mM (inactive).

Take `CC1(C)CC[C@]2(C(=O)O)CC[C@]3(C)C(=CCC4[C@@]5(C)CC[C@@H](O)C(C)(C)C5CC[C@]43C)C2C1` (some centres not stated): the Kd was > 4 mM (inactive).

Consider `NC(=O)C1(c2ccccc2)CCOCC1`, for which the Kd is > 4 mM (inactive).

Regarding `OC1CCCN(Cc2ccccc2)C1` (configuration not stated), the Kd is > 4 mM (inactive).

On to `c1ccc(-n2ncc3c(NCc4ccco4)ncnc32)cc1`, for which the Kd was > 4 mM (inactive).

For the compound `OC1CNCc2cc3c(cc21)OCCO3` (configuration not stated), the Kd was > 4 mM (inactive).

As for `Cc1c(C(=O)Nc2cnccn2)oc2ccccc12`, the Kd is > 4 mM (inactive).

As for `NC(=O)C1CCN(C(=O)c2ccccc2)CC1`, the Kd is > 4 mM (inactive).

For `O=C(O)C(CO)c1ccccc1` (configuration not stated), the Kd was > 4 mM (inactive).

In the case of `COC(=O)[C@@H]1CCCCN1C(=O)C(=O)c1cc(OC)c(OC)c(OC)c1`, the negative-log Kd (pKd) is 5.52.

As for `N#Cc1cnc(N2CCCCC2)nc1N`, the Kd was > 4 mM (inactive).

On to `CC1(C)CCC(C)(C)c2cc(C(=O)O)ccc21`, for which the Kd is > 4 mM (inactive).

Turning to `CC(=O)NC1(NC(C)=O)CCN(C)CC1`, the Kd was > 4 mM (inactive).

As to `O=C(Nc1ccon1)c1ccc2c(c1)OCO2`, the Kd is > 4 mM (inactive).

Regarding `NC(=O)CSc1nnc2ccc(-c3ccco3)nn12`, the Kd was > 4 mM (inactive).

As to `Cc1ccc(-c2nn3c(C)nnc3s2)cc1N`, the Kd is > 4 mM (inactive).

Take `NC(=O)CSc1nc2ccccc2o1`: the Kd was > 4 mM (inactive).

With `Cc1ccc(CN2CCNC(=O)C2CC(=O)O)o1` (configuration not stated), the Kd was > 4 mM (inactive).

On to `COc1ccccc1/C=C\C(=O)O`, for which the Kd is > 4 mM (inactive).

Turning to `O=S(=O)(Nc1ccc(F)cc1)N1CCOCC1`, the Kd was > 4 mM (inactive).

Regarding `NCc1cccc(-n2cccc2)c1`, the Kd was > 4 mM (inactive).

As to `Cn1cnc2cc(NC(=O)c3ccco3)ccc21`, the Kd is > 4 mM (inactive).

`CCNC(=S)N1CCC(C(N)=O)CC1`: the Kd is > 4 mM (inactive).

Consider `O=C(O)c1cccnc1-c1nc2ccccc2s1`, for which the Kd is > 4 mM (inactive).

In the case of `O=C(O)c1ccc(CN2CCCCC2)o1`, the Kd was > 4 mM (inactive).

`Cn1cccc1C=C1C(=O)NC(=S)NC1=O`: the Kd is > 4 mM (inactive).

For `OCc1ccccc1O[C@@H]1O[C@H](CO)[C@@H](O)[C@H](O)[C@H]1O`, the Kd is > 4 mM (inactive).

As for `COC1C=CC23c4cc5c(cc4CN(CC2O)[C@@H]3C1)OCO5` (some centres not stated), the Kd is > 4 mM (inactive).

On to `NC(=O)C1(S(=O)(=O)c2ccccc2)CC1`, for which the Kd was > 4 mM (inactive).

Turning to `Cc1nc2ccccc2c(=O)n1NC(=O)C1CCCCC1`, the Kd was > 4 mM (inactive).
